Measured values published in the NIST ThermoML archive (doi:10.1016/j.fluid.2010.09.021).

Experiment: excess molar enthalpy (molar enthalpy of mixing); xn = mol fraction of the nth substance listed
Conditions: Liquid, Flow calorimetry

CCCCCC[N+]1(C)CCCC1.O=S(=O)([N-]S(=O)(=O)C(F)(F)F)C(F)(F)F + Cc1ccccc1
413.15 K, 2377 kPa
Conditions | excess molar enthalpy [kJ/mol]
x2 = 0.0759 | -0.153
x2 = 0.1443 | -0.295
x2 = 0.2063 | -0.405
x2 = 0.2626 | -0.507
x2 = 0.314 | -0.606
x2 = 0.3612 | -0.69
x2 = 0.4448 | -0.789
x2 = 0.5165 | -0.832
x2 = 0.5787 | -0.849
x2 = 0.6812 | -0.786
x2 = 0.7622 | -0.633
x2 = 0.8278 | -0.47
x2 = 0.9058 | -0.269
x2 = 0.9665 | -0.108

CCCCCC[N+]1(C)CCCC1.O=S(=O)([N-]S(=O)(=O)C(F)(F)F)C(F)(F)F + c1ccccc1
393.15 K, 2342 kPa
Conditions | excess molar enthalpy [kJ/mol]
x2 = 0.0899 | -0.177
x2 = 0.1686 | -0.363
x2 = 0.238 | -0.505
x2 = 0.2998 | -0.607
x2 = 0.355 | -0.74
x2 = 0.4047 | -0.833
x2 = 0.4906 | -0.951
x2 = 0.5622 | -1.05
x2 = 0.6228 | -1.1
x2 = 0.7198 | -0.986
x2 = 0.7939 | -0.797
x2 = 0.8525 | -0.589
x2 = 0.9204 | -0.307
x2 = 0.972 | -0.103

CCCC[N+]1(C)CCCC1.O=S(=O)([N-]S(=O)(=O)C(F)(F)F)C(F)(F)F + c1ccccc1
363.15 K, 2239 kPa
Conditions | excess molar enthalpy [kJ/mol]
x2 = 0.0815 | -0.129
x2 = 0.1541 | -0.26
x2 = 0.2191 | -0.356
x2 = 0.2777 | -0.46
x2 = 0.3308 | -0.57
x2 = 0.3792 | -0.646
x2 = 0.4639 | -0.758
x2 = 0.5357 | -0.848
x2 = 0.7758 | -0.733
x2 = 0.8385 | -0.525
x2 = 0.9121 | -0.293
x2 = 0.9689 | -0.0971

CCCC[N+]1(C)CCCC1.O=S(=O)([N-]S(=O)(=O)C(F)(F)F)C(F)(F)F + Cc1ccccc1
413.15 K, 2342 kPa
Conditions | excess molar enthalpy [kJ/mol]
x2 = 0.0687 | -0.121
x2 = 0.1315 | -0.253
x2 = 0.1892 | -0.365
x2 = 0.2423 | -0.432
x2 = 0.2914 | -0.499
x2 = 0.3368 | -0.568
x2 = 0.4184 | -0.671
x2 = 0.4896 | -0.702
x2 = 0.5523 | -0.695
x2 = 0.6574 | -0.641
x2 = 0.7421 | -0.517
x2 = 0.8119 | -0.393
x2 = 0.8962 | -0.227
x2 = 0.9628 | -0.0759
